Measurements published in the supplement of paper PMC7224384.

Legend:
MDA-MB-453 [1] = assay: drug sensitivity score (DSS), in combination with BLU9931 (DSS (weighted AUC score)); higher = more sensitive (stronger viability decrease); extreme values may be limits of the assay; details: BLU9931 100 nM; 72 h
Procedure, shortened: (§1)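 Drug sensitivity scores come from a weighted area under a four-parameter logistic fit to percent viability, normalised per plate to control wells. Viability was based on cellular ATP read with CellTiterGlo 2.0 after 72 h at 37 °C, 5% CO2. Each 384-well plate carried FIMM Oncology set compounds in singlicate at five 10-fold dilutions, with 2000 MDA-MB-453 cells per well in medium with or without an FGFR4 inhibitor at 100 nM final.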

MDA-MB-453 [2] = assay: drug sensitivity score (DSS), single agent (DSS (weighted AUC score)); higher = more sensitive (stronger viability decrease); extreme values may be limits of the assay; details: BLU9931 0 nM; 72 h
Procedure, shortened: as §1

Structure (SMILES)	drug sensitivity score (MDA-MB-453 [1])	drug sensitivity score (MDA-MB-453 [2])
O=C(Nc1cc(Cl)cc2c1[nH]c1cnccc12)c1cccnc1 [PS-1145]	0.3	0
COc1cc(Br)c(Nc2nc(-c3c(C)nc4ncccn34)cs2)c(Br)c1 [PTC-209]	2	3.2
CC(=O)O[C@H]1C(=O)[C@@]2(C)[C@H]([C@H](OC(=O)c3ccccc3)[C@]3(O)C[C@H](OC(=O)[C@H](O)[C@@H](NC(=O)c4ccccc4)c4ccccc4)C(C)=C1C3(C)C)[C@]1(OC(C)=O)CO[C@@H]1C[C@@H]2O [Paclitaxel]	15.2	18.3
C1=N/C2=N/c3ccc(OCCN4CCCC4)c(c3)COC/C=C/COCc3cccc(c3)C(=C1)N2 [Pacritinib]	10	8.3
CC(=O)c1c(C)c2cnc(Nc3ccc(N4CCNCC4)cn3)nc2n(C2CCCC2)c1=O [Palbociclib]	4.8	2.5
COc1ccc(COc2cc3oc(=O)c4cc(C(C)O)ccc4c3cc2OC)cc1 (stereo not drawn) [Palomid-529]	0	2
Cc1[nH]c2ccccc2c1CCNCc1ccc(/C=C/C(=O)NO)cc1 [Panobinostat]	22.4	22.2
Cc1ccc(Nc2nccc(N(C)c3ccc4c(C)n(C)nc4c3)n2)cc1S(N)(=O)=O [Pazopanib]	0	2.3
Nc1nc2[nH]cc(CCc3ccc(C(=O)N[C@@H](CCC(=O)O)C(=O)O)cc3)c2c(=O)[nH]1 [Pemetrexed]	1.8	5.4
OC[C@H]1O[C@@H](n2cnc3c2N=CNC[C@H]3O)C[C@@H]1O [Pentostatin]	0	1
CCCCCCCCCCCCCCCCCCOP(=O)([O-])OC1CC[N+](C)(C)CC1 [Perifosine]	0	0
NS(=O)(=O)OC[C@@H]1C[C@@H](n2ccc3c(N[C@H]4CCc5ccccc54)ncnc32)C[C@@H]1O [Pevonedistat]	3.3	7
FC(F)(F)c1ccc(CNc2ccc(Cc3c[nH]c4ncc(Cl)cc34)cn2)cn1 [Pexidartinib]	0.1	1.2
CS(=O)(=O)N1CCN(Cc2cc3nc(-c4cccc5[nH]ncc45)nc(N4CCOCC4)c3s2)CC1 [Pictilisib]	17.4	16.6
CC[C@@H]1C(=O)OC[C@@H]1Cc1cncn1C [Pilocarpine]	0.2	1.2
CC(C)N(C[C@H]1O[C@@H](n2cnc3c(N)ncnc32)[C@H](O)[C@@H]1O)[C@H]1C[C@@H](CCc2nc3cc(C(C)(C)C)ccc3[nH]2)C1 [Pinometostat]	0	0
Cc1ccc(=O)n(-c2ccccc2)c1 [Pirfenidone]	0	0
NCCNc1ccc(NCCN)c2c1C(=O)c1ccncc1C2=O [Pixantrone]	1	1
c1cc(CN2CCCNCCNCCCNCC2)ccc1CN1CCCNCCNCCCNCC1 [Plerixafor]	0	0
CO[C@H](C(=O)[C@@H](O)[C@@H](C)O)[C@@H]1Cc2cc3cc(O[C@H]4C[C@@H](O[C@@H]5C[C@@H](O)[C@H](O)[C@@H](C)O5)[C@H](O)[C@@H](C)O4)c(C)c(O)c3c(O)c2C(=O)[C@H]1O[C@H]1C[C@@H](O[C@@H]2C[C@@H](O)[C@@H](O[C@@H]3C[C@](C)(O)[C@H](O)[C@@H](C)O3)[C@@H](C)O2)[C@H](O)[C@@H](C)O1 [Plicamycin]	15.7	15.7
Nc1cccc2c1C(=O)N(C1CCC(=O)NC1=O)C2=O (stereo not drawn) [Pomalidomide]	0	0
Cc1ccc(C(=O)Nc2ccc(CN3CCN(C)CC3)c(C(F)(F)F)c2)cc1C#Cc1cnc2cccnn12 [Ponatinib]	1.7	5.9
C=CC(=O)N1CCC(Oc2cc3c(Nc4ccc(Cl)c(Cl)c4F)ncnc3cc2OC)CC1 [Poziotinib]	25.1	19.1
CCCCc1nc2cc(/C=C/C(=O)NO)ccc2n1CCN(CC)CC [Pracinostat]	19.8	22.3
CC[C@H](C)C(=O)O[C@H]1C[C@H](O)C=C2C=C[C@H](C)[C@H](CC[C@@H](O)C[C@@H](O)CC(=O)O)[C@H]21 [Pravastatin]	0.3	0
C[C@]12C=CC(=O)C=C1CC[C@@H]1[C@@H]2[C@@H](O)C[C@@]2(C)[C@H]1CC[C@]2(O)C(=O)CO [Prednisolone]	0	8.2
COc1cccc(OCCCN)c1-c1cc(Nc2cnc(C#N)cn2)n[nH]1 [Prexasertib]	23.6	28

Structure (SMILES)	drug sensitivity score (MDA-MB-453 [1])	drug sensitivity score (MDA-MB-453 [2])
Cn1cc(CNCC2CCN(c3ncc(C(=O)NO)cn3)CC2)c2ccccc21 [Quisinostat]	21.3	22.4
CC(C)(C)c1cc(NC(=O)Nc2ccc(-c3cn4c(n3)sc3cc(OCCN5CCOCC5)ccc34)cc2)no1 [Quizartinib]	0.4	1
Nc1cc(F)ccc1NC(=O)/C=C/c1cnn(C/C=C/c2ccccc2)c1 [RGFP966]	2.9	2.6
COC(=O)c1ccc([C@H]2c3[nH]c4ccccc4c3C[C@H](C(=O)OC)N2C(=O)CCl)cc1 [RSL3]	0.8	0.6
Cc1cnc(NC(=O)Nc2cc(Br)c(C)cc2OC[C@@H]2CNCCO2)cn1 [Rabusertib]	0.9	1.2
Cc1cn(-c2cc(NC(=O)c3ccc(C)c(Nc4nccc(-c5cnccn5)n4)c3)cc(C(F)(F)F)c2)cn1 [Radotinib]	2.4	0
CC(C)(C)Cn1c(N)nc2ccc(-c3[nH]c(C(C)(C)C)nc3-c3ccc(F)cc3)nc21 [Ralimetinib]	0.8	1.8
O=C(c1ccc(OCCN2CCCCC2)cc1)c1c(-c2ccc(O)cc2)sc2cc(O)ccc12 [Raloxifene]	2.5	2.4
Cc1nc(=O)c2cc(CN(C)c3ccc(C(=O)N[C@@H](CCC(=O)O)C(=O)O)s3)ccc2[nH]1 [Raltitrexed]	3.2	5.3
Cn1nccc1Nc1nccc(-c2ccn([C@H](CO)c3ccc(Cl)c(F)c3)c(=O)c2)n1 [Ravoxertinib]	5.6	6.9
CNC(=O)c1cc(Oc2ccc(NC(=O)Nc3ccc(Cl)c(C(F)(F)F)c3)c(F)c2)ccn1 [Regorafenib]	1.5	3
CCOC(=O)C1=CCCC[C@H]1S(=O)(=O)Nc1ccc(F)cc1Cl [Resatorvid]	0	0
CCOCc1nc2c(N)nc3ccccc3c2n1CC(C)(C)O [Resiquimod]	0	0.9
CN(C)Cc1ccc(S(=O)(=O)n2ccc(/C=C/C(=O)NO)c2)cc1 [Resminostat]	16.2	16
CN(C)C(=O)c1cc2cnc(Nc3ccc(N4CCNCC4)cn3)nc2n1C1CCCC1 [Ribociclib]	3.6	1.4
CO[C@H]1C[C@@H]2CC[C@@H](C)[C@@](O)(O2)C(=O)C(=O)N2CCCC[C@H]2C(=O)O[C@H]([C@H](C)C[C@@H]2CC[C@@H](OP(C)(C)=O)[C@H](OC)C2)CC(=O)[C@H](C)/C=C(\C)[C@@H](O)[C@@H](OC)C(=O)[C@H](C)C[C@H](C)/C=C/C=C/C=C/1C [Ridaforolimus]	14.7	9.5
COc1cc(OC)c(/C=C/S(=O)(=O)Cc2ccc(OC)c(NCC(=O)O)c2)c(OC)c1 [Rigosertib]	16.2	17.6
C[C@H]1CNCCCN1S(=O)(=O)c1cccc2cncc(F)c12 [Ripasudil]	0.1	0
C=CC(=O)Nc1cccc(Nc2nc(Nc3ccc(N4CCN(C(C)=O)CC4)cc3OC)ncc2C(F)(F)F)c1 [Rociletinib]	7.9	7.8
O=C(CCCCCCNC(=O)c1cnc(N(c2ccccc2)c2ccccc2)nc1)NO [Rocilinostat]	9.8	9.2
C/C=C1\NC(=O)[C@H]2CSSCC/C=C/[C@H](CC(=O)N[C@H](C(C)C)C(=O)N2)OC(=O)[C@H](C(C)C)NC1=O [Romidepsin]	33.3	32
Cc1nc(C(=O)NCC(=O)O)c(O)c2ccc(Oc3ccccc3)cc12 [Roxadustat]	0	0
CN(C)C[C@@H]1CCn2cc(c3ccccc32)C2=C(C(=O)NC2=O)c2cn(c3ccccc23)CCO1 [Ruboxistaurin]	6.7	5.3
CNCc1ccc(-c2[nH]c3cc(F)cc4c3c2CCNC4=O)cc1 [Rucaparib]	0	0.6
N#CC[C@H](C1CCCC1)n1cc(-c2ncnc3[nH]ccc23)cn1 [Ruxolitinib]	0	1.2
CC(C)N(CCCNC(=O)Nc1ccc(C(C)(C)C)cc1)C[C@H]1O[C@@H](n2cc(Br)c3c(N)ncnc32)[C@H](O)[C@@H]1O [SGC0946]	0.1	0.9
COc1ccc(CCc2nc3cc(-c4c(C)noc4C)ccc3n2C[C@H](C)N2CCOCC2)cc1Cl [SGC-CBP30]	9.1	9
